These results are taken from patent US12102705B2, “Peptides having inhibitory activity on muscarinic receptor M3” (AZIENDE CHIMICHE RIUNITE ANGELINI FRANCESCO—A.C.R.A.F. …, priority 2018, dated 2024).

Structures can show the parent of a compound that is named as a salt. Peptide text beside a SMILES is read from it. * marks the point of attachment. Palmitoyl = CCCCCCCCCCCCCCCC(=O)*

In series [1] the test system is human epidermal keratinocytes (HEKa). The series can be described thus: MTT cell viability assay in keratinocytes. It counts as cell-based. The note with it: as TFA-salt, any concentration assessed; keratinocytes and fibroblasts. The method, then: This example evaluated the effects of the tested peptides on human epidermal keratinocytes and dermal fibroblasts cell viability. The 3-(4,5-dimethyl-2-thiazolyl)-2,5-diphenyl-2H-tetrazolium bromide (MTT) assay was used to that monitor cell proliferation and viability based on the capacity of the mitochondrial dehydrogenase enzyme to break and transform the tetrazolium rings of MTT.
Epidermal keratinocytes were seeded in a previously coated 96 well-plate at 50-60% confluence in 100 μL of supplemented medium. Dermal fibroblasts were seeded in a 96 well-plate at 70% confluence in 100 μL supplemented medium. 24 hours after seeding, medium was replaced by fresh supplemented medium containing peptides dissolved at concentration range between 0.1 and 100 μM or SDS as reference of 100% toxicity or DMSO as vehicle for peptides. All test substances were incubated for 24 hours at 37° C. and 5% CO2. Afterwards, medium was replaced by 0.5 mg/mL of MTT solution for 4 h in complete medium. Then, medium was carefully removed and 150 μL/well of DMSO were added to solubilize formazan crystals. Plate was protected from light, shaken for 60 seconds and optical density was measured at 570 nm with a reference filter of 620 nm. Toxicity values were calculated as percentages by considering maximum cytotoxic effect to SDS-treated cells and minimum as non-treated cells. Table G details effects of Seq. ID No 1, 5, 6 and 7 peptides on keratinocytes and fibroblasts as percentage of cell viability inhibition.

Series [2] deals with T1, human muscarinic receptor M3 (Homo sapiens, UniProt P20309).
T1 construct: expressed in transfected cells; cultured in Ham's F-12 medium
In words: Inhibition of M3-acetylcholine activation, Fluo-4 NW calcium fluorescence. It counts as cell-based. Particulars: 50 min, 50 min incubation, 10 nM acetylcholine. The method, then:
(§1) Epithelial stable cell line constitutively expressing human muscarinic receptor M3 was used to assess peptides activity. Cells were seeded in 96-well plates at 50% cell confluence in 100 μL of complete Ham's F-12 medium. After 24 hours, medium was removed and cells were incubated with 90 μL/well of a solution of the peptides of the invention at 100, 50 or 10 μM or DMSO as vehicle. Peptides were dissolved in Fluo-4 NW (Invitrogen) fluorescent calcium probe assay buffer containing Probenecid, following manufacturer's instructions for 50 min at 37° C. in a CO2 incubator. Afterwards, M3 activity was determined by reading the fluorescence in a FLUOstar Galaxy reader (BMG LabTechnologies) using 485 nm filter for excitation and 520 nm for emission, recording signal before and after M3 activation with 10 nM acetylcholine. Fluorescence measurements were normalized to acetylcholine maximum fluorescence signal in vehicle treated cells. Atropine (100 nM) was used as positive control for inhibition. Inhibition values of M3 activity were calculated as percentages by considering maximum fluorescence corresponding to acetylcholine-M3 activation and minimum as non-stimulated cells. Table D details inhibition values of M3 activity inhibition obtained for the peptides of invention.

In series [3] the target is T1, human muscarinic receptor M3. The series can be described thus: Time-dependent inhibition of M3 activity, Fluo-4 NW calcium fluorescence. It counts as cell-based. Particulars: peptide 50 μM, read-out: % Inhibition hM3 receptor activity. How it is done: Peptides of invention were designed to target the intracellular region of M3. Therefore, minimum time required to detect inhibitory effect on M3 activity was evaluated. For this purpose, inhibitory effect of peptides Seq. […] Epithelial stable cell line constitutively expressing human muscarinic receptor M3 was used to assess peptides activity. Cells were seeded in 96-well plates at 50% cell confluence in 100 μL of complete Ham's F-12 medium. After 24 hours, medium was removed and cells were incubated with 90 μL/well of Fluo-4 NW (Invitrogen) fluorescent calcium probe assay buffer containing probenecid, following manufacturer's instructions at 37° C. in a CO2 incubator. Peptides (50 μM), vehicle and atropine were incubated either with the probe (1 hour pre-incubation) or during fluorescence reading (direct effect). Afterwards, M3 activity was recorded for 20 cycles and direct effect peptides were added on cycle 3 after baseline assessment. Acetylcholine was added on cycle 13. Therefore, direct effect of peptides was monitored for 25 minutes. Inhibition values of M3 activity were calculated as percentages by considering maximum fluorescence corresponding to vehicle or non-treated cells acetylcholine-M3 activation and minimum as non-stimulated cells. Table E details inhibition values of M3 activity inhibition obtained for the peptides of invention.

For series [4] the target is unchanged. The series can be described thus: Dose-response inhibitory effect on M3 activity (IC50). It counts as cell-based. The method, then: as §1
Characterization of Seq. ID No. 1, 3-8 peptides efficiency was obtained by calculating half maximal inhibitory concentration (IC50). For this purpose, experimental procedure regarding cell culture and fluorescent calcium probe assay was followed as described on Example 2. Peptides were assessed at concentrations between 0.1 and 100 μM and incubated for 1 hour together with Fluo-4 NW probe. Afterwards, M3 activity was determined by reading the fluorescence in a FLUOstar Galaxy reader (BMG LabTechnologies) using 485 nm filter for excitation and 520 nm for emission, recording signal before and after M3 activation with acetylcholine. Fluorescence measurements were standardized with regard to the maximum fluorescence signal detected with acetylcholine stimulation in vehicle treated cells. Inhibition values of M3 activity were calculated as percentages by considering maximum fluorescence corresponding to acetylcholine-M3 activation and minimum as non-stimulated cells. Percentage inhibition data was fitted to a sigmoidal curve to obtain IC50. Table F details inhibition values for IC50

The subject of series [5] is sweating induced by pilocarpine. In words: Antiperspirant effect on acute administration, pilocarpine-induced mouse model of sweat secretion. It counts as in vivo, C57BL6/Rcc male mice. The note with it: at 10, 30 and 100 μg. The method, then:
This example evaluated acute effects of the peptide of invention Seq. ID No 2, pamitoylated form, in an in vivo sweating model induced by pilocarpine. This model was established using pilocarpine, a non-selective agonist of muscarinic receptors, in 11-weeks old C57BL6/Rcc male mice.
Test compound is the peptide of the invention having the following sequence (Sequence ID No. 2): • Palm-WMMRLK-NH2
Test compound was injected i.pl. on the right hind paw (10, 30 and 100 μg) 30 min before sweating stimulation. Vehicle was saline solution.
(§2) Sweating was monitored through amylase activity detection on skin surface using iodine/starch reaction. Dark sweating drops were quantified after 5 minutes induction counting number of drops per paw in each condition. Data are expressed as mean±standard error of the mean (SEM). Raw data was normalized as percentage respect to non-injected stimulated individuals (Control, 100%) and saline-injected non-stimulated individuals (Vehicle, 0%). Statistical analysis was one-way ANOVA followed by Dunnett's post-hoc multiple comparison test comparing each condition with the corresponding control group, ****p<0.0001 ***p<0.001 **p<0.01, *p<0.05

For series [6] the test system is unchanged. In words: Antiperspirant effect on chronic administration, pilocarpine-induced mouse model of sweat secretion. The format is in vivo, C57BL6/Rcc male mice. Particulars: during 4 weeks treatment, 10 and 100 μg/paw. How it is done: This example evaluated chronic effects of peptide of invention Seq. ID No. 2, palmitoylated form, in an in vivo sweating model. This model was established using pilocarpine, a non-selective agonist of muscarinic receptors, in 11-weeks old C57BL6/Rcc male mice. Test compound was locally administered three times per week for 4 weeks (Treatment). Sweat was induced by intraplantar (i.pl) injection of pilocarpine (3 μg/paw) in the right hind paw (Sweating) on weeks 1, 2 and 4 according to the table H.
Test compound is the peptide of the invention having the following sequence (Sequence ID No. 2): • Palm-WMRLK-NH2
Test compound was injected i.pl. on the right hind paw (1, 10 and 100 μg in). Vehicle injected was saline solution.
as §2, with “condition. Sample n=5-6 individuals per group.” for “condition.”, “100%).” for “100%) and saline-injected non-stimulated individuals (Vehicle, 0%).”

T1 sequence (P20309 whole entry): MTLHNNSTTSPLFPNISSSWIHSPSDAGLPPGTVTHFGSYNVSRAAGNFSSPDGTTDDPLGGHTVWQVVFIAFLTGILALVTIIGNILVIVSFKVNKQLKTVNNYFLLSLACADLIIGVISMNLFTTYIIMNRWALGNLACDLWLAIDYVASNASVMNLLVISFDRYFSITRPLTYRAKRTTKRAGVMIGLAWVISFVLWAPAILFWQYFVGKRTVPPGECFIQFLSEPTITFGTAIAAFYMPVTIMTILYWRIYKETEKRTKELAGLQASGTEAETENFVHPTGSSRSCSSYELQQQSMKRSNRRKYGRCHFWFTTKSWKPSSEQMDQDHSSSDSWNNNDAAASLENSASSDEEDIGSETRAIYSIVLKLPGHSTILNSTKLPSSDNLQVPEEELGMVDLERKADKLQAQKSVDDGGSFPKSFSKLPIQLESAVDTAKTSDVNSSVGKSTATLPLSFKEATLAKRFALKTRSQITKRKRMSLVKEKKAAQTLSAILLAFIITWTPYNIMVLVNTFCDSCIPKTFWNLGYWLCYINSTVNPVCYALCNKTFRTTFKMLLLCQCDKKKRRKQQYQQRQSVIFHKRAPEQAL

Consider `CCCCCCCCCCCCCCCC(=O)N[C@@H](Cc1c[nH]c2ccccc12)C(=O)N[C@@H](CCSC)C(=O)N[C@@H](CCCNC(=N)N)C(=O)N[C@@H](CC(C)C)C(N)=O` [Seq. ID No. 1 Palmitoyl (TFA salt)] (Palmitoyl-WMRL-NH2), for which, in series [1], the “effect on cell proliferation” value is on record as “did not affect cell proliferation”.

Turning to `CCCCCCCCCCCCCCCC(=O)N[C@@H](Cc1c[nH]c2ccccc12)C(=O)N[C@@H](CCSC)C(=O)N[C@@H](CCCNC(=N)N)C(=O)N[C@@H](CC(C)C)C(=O)N[C@@H](CCCCN)C(N)=O` [Seq. ID No. 2 Palmitoyl, Palm-WMRLK-NH2] (Palmitoyl-WMRLK-NH2), the inhibition at 10 µM in series [2] (peptide 10 μM) amounted to 62.5%. Besides, the inhibition at 50 µM in series [2] (peptide 50 μM) came to 85.4%; in series [3] (25 min, 25 minutes (direct effect)) it was 25.5%; in series [3] (60 minutes (1 hour pre-incubation)) it was 81%. Moreover, in series [2] (peptide 100 μM), the inhibition at 100 µM stood at 88.6%. Besides, the IC50 in series [4] worked out at 7.2 µM. Moreover, in series [5], the reduction of sweating result was “significantly reduced sweating”. Also, the sweating inhibition result in series [6] was “significant sweating inhibition”.

Consider `CCCCCCCCCCCCCCCC(=O)N[C@@H](Cc1c[nH]c2ccccc12)C(=O)N[C@@H](CCSC)C(=O)N[C@@H](Cc1ccccc1)C(=O)N[C@@H](CC(C)C)C(=O)N[C@@H](CCCCN)C(N)=O` [Seq. ID No. 5 Palmitoyl (TFA salt)] (Palmitoyl-WMFLK-NH2), for which the “effect on cell proliferation” value in series [1] is reported as “did not affect cell proliferation”.

As to “Ac-RMYKMMAGMYLR-NH2 [Seq. ID No. 6 Acetyl (TFA salt)]”, the “effect on cell proliferation” value in series [1] is reported as “did not affect cell proliferation”.

As to “Ac-RVMYKMNKRDY-NH2 [Seq. ID No. 7 Acetyl (TFA salt)]”, the “effect on cell proliferation” value in series [1] is on record as “did not affect cell proliferation”.
